Source: PMC11478322, “1,2,4-Oxadiazole Derivatives: Physicochemical Properties, Antileishmanial Potential, Docking and Molecular Dynamic Simulations of Leishmania infantum Target Proteins” (Molecules, 2024)
Like-named read-outs stand apart in the source and are kept apart here.

Assays:
[1] = test system: L. infantum amastigotes in PeMs; design: method as in PMID 18660990, PMID 23070424; conditions: concentration used as positive control; read-out: IC50 of reference drugs; cited from earlier work
[2] = test system: L. infantum amastigotes in PeMs; assay: microbe, parasite or virus in culture; conditions: for number of intracellular amastigotes / parasites in infected PeMs: glucantime 346.19 µM, Amphotericin B 10.55 µM
Procedure: After initial cultivation, non-adherent cells were removed by washing with fresh RPMI medium. Subsequently, PeMs were infected with stationary promastigote forms of L. infantum at 1:20 PeM/promastigotes ratio. […] After incubation time, the samples were washed in PBS, fixed with methanol, and stained with Giemsa. The percentage of infected macrophages was determined by counting 150 randomly chosen cells in duplicate, and the survival index (SuI) was calculated by multiplying the percentage of infected cells by the mean of amastigotes in infected cells. […] The tests were carried out in duplicate in three independent experiments.

macrophages (J774.G8) = assay: Cytotoxicity assay (MTT) in macrophages; type: cell-based; conditions: 200 µM, 48 h
Procedure: (§1) The cytotoxic potential of Ox1–Ox7 was first evaluated in fibroblasts (L929) and macrophages (J774.G8). For this, 5 × 10^5 cells/mL were seeded in 96-well microplates containing 100 μL of DMEM or RPMI-1640 medium supplemented with 10% fetal bovine serum (FBS) and cultivated for 24 h at 37 °C, under 5% CO2 atmosphere. […] Untreated cells were considered as negative control. The cell viability was measured by spectrometry after 48 h of cultivation using MTT (Sigma-Aldrich, St. Louis, MO, USA) methodology described by Mosmann. The optical densities (OD) of the samples were read in a Glomax Multiplate reader (Promega, Madison, WI, USA) at 540 nm. Each assay was performed in triplicate in three independent experiments. […] The selectivity index (SI) for each compound was calculated as the ratio between the CC50 values obtained for J774.G8 macrophages and fibroblast and the IC50 values for promastigotes. The compound with a higher value of SI was selected for cytotoxicity evaluation in macrophages obtained from BALB/c mice peritoneal exudate (PeM), following the methodology described above.

[3] = Cytotoxicity assay (MTT) in macrophages; type: cell-based; conditions: mouse, 48 h of treatment, MTT, tested 6.25–200 µM
Procedure: as §1

[4] = test system: L. infantum promastigotes; assay: Promastigote viability (CellTiter-Glo ATP); type: cell-based, L. infantum (BH46 strain); conditions: for IC50: Leishmania infantum, read-out: IC50 Pro; for SI Pro/J774.G8: ratio CC50 (J774.G8)/IC50 (promastigotes); for SI Pro/L929: ratio CC50 (L929)/IC50 (promastigotes); for SI (promastigotes vs fibroblasts and J774.G8 macrophages): stated as bound
Procedure: Promastigote forms of L. infantum (BH46 strain) were cultivated at 27 °C in Schneider’s medium, supplemented with 10% (v/v) heat-inactivated fetal bovine serum (FBS, Gibco, Waltham, MA, USA), 100 U/mL penicillin, and 0.01 mg/mL streptomycin. Parasites in the log phase were used in the test of drugs against promastigotes, whereas those obtained in the stationary phase were used to infect peritoneal macrophages. […] The viability of promastigotes was assessed through ATP production using the CellTiter-Glo® Luminescent Cell Viability assay (Promega, Madison, WI, USA), in accordance with the manufacturer’s instructions.

[5] = test system: peritoneal macrophages from BALB/c mice (PeM); assay: Cytotoxicity assay (MTT) in peritoneal macrophages; type: cell-based
Procedure: as §1

[6] = Cytotoxicity assay (MTT) in peritoneal macrophages; type: cell-based, BALB/c mice; conditions: BALB/c, mouse, peritoneal macrophages (PeM); peritoneal macrophages, estimated; read-out: CC50 for PeMs
Procedure: as §1

[7] = test system: L. infantum promastigotes; assay: Scanning electron microscopy of promastigotes (rounded cells count); type: cell-based; conditions: 48 h, control 5%
Procedure: To identify alterations in the morphology of promastigotes and amastigotes, scanning (SEM) and transmission (TEM) electron microscopy assays were performed. For SEM, L. infantum promastigotes were treated with once or twice the IC50 concentration of Ox1 for 48 h. Subsequently, the parasites were harvested by centrifugation, washed with 100 mM PBS, pH 7.2, fixed at room temperature, for 1 h in 2.5% glutaraldehyde solution diluted in 0.1 M cacodylate buffer, pH 7.2. Cells were adhered to coverslips pre-coated with poly-L-lysine, post-fixed for 1 h with a solution containing 1% osmium tetroxide, 0.8% potassium ferricyanide, and 5 mM calcium chloride diluted in 0.1 M cacodylate buffer, pH 7.2, in light-protected environment. Then, the cells were dehydrated in graded ethanol series (15–100%) for 10 min at room temperature. Samples were critical-point dried in a LEICA EM CPD300 apparatus (Leica Microsystems, Wetzlar, Hessen, DE, Germany) and then coated with 20 nm gold and observed in a JEOL T-200 scanning electron microscope (JEOL Ltd., Tokyo, Japan). For MET, promastigotes and infected PeMs were treated or not with once or twice IC50 concentration of Ox1, fixed and post-fixed, as described above. For infected–adhered peritoneal macrophages, after the post-fixation, the cells were scraped off the culture dishes with a rubber policeman. […]

[8] = Cytotoxicity assay (MTT) in fibroblasts; type: cell-based; conditions: mouse, 48 h of treatment, MTT, tested 6.25–200 µM
Procedure: as §1

fibroblasts (L929) = assay: Cytotoxicity assay (MTT) in fibroblasts; type: cell-based; conditions: 200 µM, 48 h
Procedure: as §1

[9] = test system: L. infantum promastigotes; assay: Mitochondrial membrane potential, Rhodamine 123 flow cytometry; type: cell-based
Procedure: Afterward, the cells were centrifuged and stained with Rhodamine 123 (10 µg/mL, molecular probes, Invitrogen™, Waltham, MA, USA) in PBS for 15 min at 27 °C, in the dark. […] The changes in the fluorescence intensity for fluorochrome were determined by the variation index calculated as follows: (MT − MC)/MC where MT is the mean fluorescence intensity of treated cells and MC is the mean of fluorescence of control cells without treatment. A total of 20,000 events were acquired, and the data were analyzed with FLOWJO software version 10.2.

[10] = 24 h, Ox1 8.24, 16.49, 32.98 µM
[11] = promastigotes, 48 h of treatment

Molecule: C[C@@H]1[C@H](O)[C@@H](C)/C=C/C=C/C=C/C=C/C=C/C=C/C=C/[C@H](O[C@@H]2O[C@H](C)[C@@H](O)[C@H](N)[C@@H]2O)C[C@@H]2O[C@](O)(C[C@@H](O)C[C@@H](O)[C@H](O)CC[C@@H](O)C[C@@H](O)CC(=O)O[C@H]1C)C[C@H](O)[C@H]2C(=O)O [Amphotericin B, reference compound]
- IC50 [1]: 10.6 µM
- number of intracellular amastigotes / parasites in infected PeMs [2, 10]: reduced the number of intracellular amastigotes

Molecule: COc1ccc(-c2noc(NC3CCCCC3)n2)cc1 [Ox1, N-Cyclohexyl-3-(4-methoxyphenyl)-1,2,4-oxadiazol-5-amine]
- melting point: 109 to 110 °C
- reduction of cell viability, macrophages J774.G8 (macrophages (J774.G8)): 26%
- CC50 at 48 h ([3]; J774.G8 macrophages): > 200 µM
- reduction in promastigote viability ([4]; 25 µM, 48 h): 32%
- reduction of growth of parasites ([4]; 50 µM, 24 h): 66%
- promastigote viability inhibition ([4]; 200 µM, regardless of the cultivation time (24 and 48 h)): exceeded 90%
- SI against promastigotes compared to peritoneal macrophages ([4]; CC50 PeM/IC50 promastigotes): 18.7
- IC50 [4, 11]: 32.9 ± 2.2 µM
- increase in activity compared to compound Ox3 ([4]; promastigote IC50 comparison): about 10 times
- SI Pro/J774.G8 [4]: 8.9
- SI Pro/L929 [4]: 9.7
- reduction of viability of PeMs ([5]; 400 µM, compared to control cells): 13%
- viability of macrophages (PeM) ([5]; 6.25 to 200 µM): significantly increased
- CC50 at 48 h [6]: 617 µM
- percentage of rounding cells ([7]; IC50 (32.98 µM)): 7%
- percentage of rounding cells ([7]; twice the IC50 (65.96 µM)): 30%
- CC50 at 48 h ([8]; L929 fibroblasts): > 200 µM
- reduction of cell viability, fibroblasts (fibroblasts (L929)): 20%
- variation index of membrane potential (Rhodamine 123) ([9]; 2× IC50 of Ox1, 48 h): −0.32
- variation index of membrane potential (Rhodamine 123) ([9]; IC50 of Ox1, 48 h): +0.28
- membrane potential (Rhodamine 123 fluorescence) vs control ([9]; ½ IC50 of Ox1, 48 h): No difference
- survival index (SuI) of amastigotes inside the macrophages [2, 10]: significantly decreased
- number of intracellular amastigotes / parasites in infected PeMs [2, 10]: significantly decreased
- SI against amastigotes ([2]; CC50 for PeM/IC50 of amastigote forms): 61.7
- IC50 ([2]; Leishmania infantum, Peritoneal macrophage, 24 h, read-out: IC50 for amastigote forms in PeMs): 10 µM

Molecule: O=[N+]([O-])c1cccc(-c2noc(NC3CCCCC3)n2)c1 [Ox2, N-Cyclohexyl-3-(3-nitrophenyl)-1,2,4-oxadiazol-5-amine]
- melting point: 131 to 133 °C
- CC50 at 48 h ([3]; J774.G8 macrophages): > 200 µM
- IC50 [4, 11]: 220 ± 3.6 µM
- SI Pro/L929 [4]: 1.7
- SI (promastigotes vs fibroblasts and J774.G8 macrophages) [4]: lower than 5.0
- CC50 at 48 h ([8]; L929 fibroblasts): > 200 µM

Molecule: O=[N+]([O-])c1ccc(-c2noc(NC3CCCCC3)n2)cc1 [Ox3, N-Cyclohexyl-3-(4-nitrophenyl)-1,2,4-oxadiazol-5-amine]
- melting point: 201 to 203 °C
- CC50 at 48 h ([3]; J774.G8 macrophages): > 200 µM
- IC50 [4, 11]: 336 ± 12.1 µM
- SI Pro/L929 [4]: 1.1
- CC50 at 48 h ([8]; L929 fibroblasts): > 200 µM

Molecule: Cc1ccc(-c2noc(NC3CCCCC3)n2)cc1 [Ox4, N-Cyclohexyl-3-(4-methylphenyl)-1,2,4-oxadiazol-5-amine]
- CC50 at 48 h ([3]; read-out: CC50 J774.G8): > 200 µM
- IC50 ([4]; 48 h): 174 ± 12.3 µM
- SI Pro/L929 [4]: 1.7
- CC50 at 48 h ([8]; read-out: CC50 L929): > 200 µM

Molecule: C#CCN(c1nc(-c2ccccc2)no1)C1CCCCC1 [Ox5, N-Cyclohexyl-3-phenyl-N-(prop-2-yn-1-yl)-1,2,4-oxadiazol-5-amine]
- melting point: 112 to 114 °C
- CC50 at 48 h ([3]; J774.G8 macrophages): 160 ± 6.5 µM
- IC50 [4, 11]: 84.7 ± 3.6 µM
- SI Pro/L929 [4]: 4.4
- SI (promastigotes vs fibroblasts and J774.G8 macrophages) [4]: lower than 5.0
- CC50 at 48 h ([8]; L929 fibroblasts): > 200 µM

Molecule: C#CCN(c1nc(-c2ccc([N+](=O)[O-])cc2)no1)C1CCCCC1 [Ox6, N-Cyclohexyl-3-(4-nitrophenyl)-N-(prop-2-yn-1-yl)-1,2,4-oxadiazol-5-amine]
- melting point: 108 to 110 °C
- CC50 at 48 h ([3]; J774.G8 macrophages): > 200 µM
- IC50 [4, 11]: 92.2 ± 1.9 µM
- SI Pro/J774.G8 [4]: 2.5
- SI Pro/L929 [4]: 3.7
- SI (promastigotes vs fibroblasts and J774.G8 macrophages) [4]: lower than 5.0
- CC50 at 48 h ([8]; L929 fibroblasts): > 200 µM

Molecule: C#CCN(c1nc(-c2cccc([N+](=O)[O-])c2)no1)C1CCCCC1 [Ox7, N-Cyclohexyl-3-(3-nitrophenyl)-N-(prop-2-yn-1-yl)-1,2,4-oxadiazol-5-amine]
- melting point: 94 to 96 °C
- CC50 at 48 h ([3]; J774.G8 macrophages): 197 ± 6 µM
- IC50 [4, 11]: 98.2 ± 1.4 µM
- SI Pro/J774.G8 [4]: 2.0
- CC50 at 48 h ([8]; L929 fibroblasts): > 200 µM

Molecule: c1ccc(-c2noc(NC3CCCCC3)n2)cc1 [Ox, N-Cyclohexyl-3-(phenyl)-1,2,4-oxadiazol-5-amine]
- melting point: 125 to 127 °C

Molecule: antimoniate of meglumine [glucantime, reference compound]
- IC50 [1]: 346 µM
- number of intracellular amastigotes / parasites in infected PeMs [2, 10]: reduced the number of intracellular amastigotes
